Experimental data taken from US11117931B2, “Antimicrobial peptide derived from Hp1404 peptide and uses thereof” (priority 2017, dated 2021).
Where no end group is shown, it is not given here.

Tests used:
[1] = system: Pseudomonas aeruginosa strain 1034; test: In vivo antimicrobial activity, infected skin wound; parameters: species or system BALB/c mouse
Procedure: By using Hp1404-T1e found to have the most excellent antimicrobial activity among the peptides that are prepared by the method of Example 1, in vivo antimicrobial activity was measured. Specifically, among the Pseudomonas aeruginosa strains, strain 1034 was selected and tested. The strain was prepared by washing 3 times with PBS buffer. Ciprofloxacin antibiotic was used as a control group. A BALB/c mouse (6 week old) was shaved clean and a wound with pre-determined size was created thereon. Then, the wound site was injected intracutaneously with Pseudomonas aeruginosa strain 1034 ([…], 2×10^5 CFU/ml). After the bacterial infection, the peptide and antibiotic, each prepared at a concentration of 0.1 mg/ml and 0.2 mg/ml, respectively, were intracutaneously injected, and the observation was made everyday. On each day, the skin tissues were sampled and smeared on an NB solid medium. The smeared medium was incubated in an incubator for 18 hours, and the number of grown colonies was counted and expressed in %.

E. coli = test: MIC, E. coli; assay type: cell-based, Escherichia coli; conditions: E. coli (ATCC 25922), 18 hours at 37° C.
Excerpt: (§1) To compare the antimicrobial activity among the peptides produced by the method of Example 1, the inventors of the present invention measured the minimal growth inhibitory concentration (MIC), which is minimum concentration of the peptide showing no dissociation of bacterial cells.
(§2) Specifically, the bacterial strain described in the following Table 2 was purchased and cultured to a mid-log phase in each medium with a composition suitable for each strain. Then, after dilution to bacterial cell concentration of 2×10^4 cells/100 μl, the cells were inoculated to a microtiter plate (NUNC, USA). Thereafter, Hp1404-T1, Hp1404-T1a, Hp1404-T1b, Hp1404-T1c, Hp1404-T1d or Hp1404-T1e peptide which has been synthesized in Example 1 above was subjected to serial dilution, ½ times for each, with BSA (bovine serum albumin) solution in a 96-well plate. After adding the cells to a plate, the cells were cultured for 18 hours at 37° C. By using a microtiter plate reader (Merck Elisa reader, Germany), the absorbance was measured at a wavelength of 600 nm to determine the MIC value of each bacterial strain. As a control group, Hp1404 as a mother peptide was used.

L. monocytogenes = test: MIC, L. monocytogenes; assay type: cell-based, Listeria monocytogenes; conditions: L. monocytogenes (KCTC 3710), 18 hours at 37° C.
Excerpt: as §1, §2

[2] = system: erythrocytes of a mouse (Balb/c); test: Hemolytic activity; assay type: cell-based
Procedure: To compare the cytotoxicity among the peptides that are produced by the method of Example 1, erythrocyte hemolytic activity of the synthesized peptide was measured.
Specifically, erythrocytes of a mouse (Balb/c, 6 week old, female) were diluted in physiological saline (PBS, pH 7.0) to have concentration of 8%, and then subjected to a treatment with Hp1404, Hp1404-T1, Hp1404-T1a, Hp1404-T1b, Hp1404-T1c, Hp1404-T1d or Hp1404-T1e, each at concentration of 6.25, 12.5, 25.0, 50.0, 100.0 and 200.0 μM/well, respectively, followed by a reaction for 1 hour at 37° C. After that, the amount of hemoglobin contained in a supernatant collected by centrifuge at 1,000×g was determined by measuring the absorbance at a wavelength of 414 nm. As a control group to be used as a reference for cell disruption level, the supernatant collected by a treatment with 1% Triton X-100 (Sigma, USA) and a reaction for 1 hour at 37° C. was used to measure the absorbance. By setting the resulting absorbance value at 100%, the hemolytic activity of each peptide was calculated using the following mathematical formula 1. Erythrocyte disrupting ability (hemolysis) (%)=(Absorbance A−Absorbance B)/(Absorbance C−Absorbance B)×100 [Mathematical formula 1] (in the above formula, Absorbance A indicates the absorbance of a reaction solution treated with each peptide, in which the absorbance is measured at a wavelength of 414 nm; Absorbance B indicates the absorbance of a reaction solution treated with PBS, in which the absorbance is measured at a wavelength of 414 nm; and Absorbance C indicates the absorbance of a reaction solution treated with 1% Triton X-100, in which the absorbance is measured at a wavelength of 414 nm).

[3] = Cytotoxicity in normal cell line (MTT); assay type: cell-based; conditions: human, HaCaT keratinocytes, read-out: Cell survival ability; for viability at 24 h, 6.25 µM: peptide concentration 6.25 μM; for viability at 24 h, 12.5 µM: peptide concentration 12.5 μM; for viability at 24 h, 25 µM: peptide concentration 25 μM; for viability at 24 h, 50 µM: peptide concentration 50 μM; for viability at 24 h, 100 µM: peptide concentration 100 μM; for viability at 24 h, 200 µM: peptide concentration 200 μM, HaCaT
Procedure: To determine the cytotoxicity of the peptide produced by the method of Example 1 in normal cell line, toxicity was measured by using human keratinocytes (HaCaT cell line, Dr. N E. Fusenig, Heidelberg, Germany).
Specifically, HaCaT cells which have been cultured in DMEM medium containing 10% FBS (Fetal Bovine Serum) were aliquoted in a 96-well plate to have 2×10^5 cells per well. After culturing them for 24 hours, the cells were subjected to a treatment with Hp1404, Hp1404-T1, Hp1404-T1a, Hp1404-T1b, Hp1404-T1c, Hp1404-T1d, or Hp1404-T1e, each at concentration of 6.25, 12.5, 25.0, 50.0, 100.0 or 200.0 μM/well, followed by reaction for 24 hours in a 5% CO2 incubator. After 24 hours, a reaction solution containing 0.5 mg/ml MTT (Thiazolyl Blue Tetrazolium Bromide) dissolved in physiological saline (PBS) was added in an amount of 100 μl to each well and the reaction was allowed to occur for 4 hours. After that, the supernatant was removed, and, by dissolving MTT crystals that are formed by adding 200 μl of DMSO (dimethyl sulfoxide), the absorbance at 560 nm was measured to determine the cell survival ability.

S. aureus = test: MIC, S. aureus; assay type: cell-based, Staphylococcus aureus; conditions: S. aureus (ATCC 25923), 18 hours at 37° C.
Excerpt: as §1, §2

plasmid DNA (pRSETB) = test: Binding between antimicrobial peptide and DNA (gel electrophoresis); conditions: peptide/DNA ratio 0.25:1 to 4:1, 10 minutes at 37° C.
Procedure: To figure out the working mechanism of the synthetic peptides of the present invention for showing the antimicrobial activity, electrophoresis was carried out to examine the possible binding of synthetic peptides, i.e., Hp1404, […], Hp1404-T1d and Hp1404-T1e, to DNA as an internal material of bacteria.
Specifically, after reacting the plasmid DNA (pRSETB, 260 ng) with the peptide at different ratio (i.e., peptide/DNA ratio is as follows for lane number 1 to lane number 8: DNA only, 0.25:1, 0.5:1, 1:1, 1.5:1, 2:1, 3:1, and 4:1. respectively) for 10 minutes at 37° C., they were subjected to electrophoresis using 1% agarose gel followed by ethidium bromide (EtBr) staining and UV visualization.

[4] = system: lipopolysaccharide (LPS) isolated from P. aeruginosa; test: Binding ability between lipopolysaccharide (LPS) and peptide; conditions: peptide at 1×MIC
Procedure: By using the peptides prepared by the method of Example 1, binding to lipopolysaccharide (LPS), which is a constitutional component of a cell wall of Gram-negative bacteria, was examined. LPS used in the present invention was isolated from P. aeruginosa. Lipopolysacchride (0 to 100 μg/ml) was diluted with 10 mM sodium phosphate buffer (pH 7.2), reacted with each peptide at a concentration of 1× or 2×MIC, and then cultured with the bacteria at 2×10^5 CFU/ml. By measuring the absorbance at 600 nm, the binding ability to the peptide was determined. Additionally, after reacting 0.1% […] with the peptide (40 μM) in an incubator, the secondary structure was examined by circular dichroism (CD) spectroscopy.

[5] = system: S. aureus or P. aeruginosa membrane; test: Flow cytometry with propidium iodide; assay type: cell-based; conditions: 2×MIC, 1 hour at 37° C.
Procedure: Specifically, S. aureus or P. aeruginosa was treated for 1 hour at 37° C. with the mother peptide Hp1404, or Hp1404-T1c, Hp1404-T1d or Hp1404-T1e peptide (at concentration of 2×MIC). After that, the supernatant was removed by centrifuge (10,000 rpm) and stained with propidium iodide (PI, concentration of 10 μg/ml) for 30 minutes at 4° C. Thereafter, unbound propidium iodide was removed by centrifuge, and the problem of cell aggregation phenomenon was solved by adding physiological saline (PBS) in an amount of 1 ml.

[6] = Stability against trypsin enzyme (RP-HPLC); assay type: in vitro ADME; conditions: 20 nM trypsin, 37° C., read-out: amount of remaining peptide
Procedure: To determine whether or not the peptides prepared by the method of Example 1 have stability against an enzyme, RP-HPLC (reverse-phase HPLC) was carried out. Specifically, 20 μg of the peptide was reacted with 100 μl of trypsin at concentration of 20 nM for 1 to 2 hours at 37° C. After the reaction, 20 μl of the reaction product was applied to RP-HPLC, and the amount of remaining peptide was examined.

Compound | Minimal inhibitory concentration (E. coli) [µM] | Minimal inhibitory concentration (L. monocytogenes) [µM] | Erythrocyte disrupting ability ([2]; peptide concentration 6.25 μM) [%] | Erythrocyte disrupting ability ([2]; peptide concentration 12.5 μM) [%] | Erythrocyte disrupting ability ([2]; peptide concentration 25 μM) [%] | Erythrocyte disrupting ability ([2]; peptide concentration 50 μM) [%] | Erythrocyte disrupting ability ([2]; peptide concentration 100 μM) [%] | viability at 24 h, 6.25 µM [3] [%] | viability at 24 h, 12.5 µM [3] [%] | viability at 24 h, 25 µM [3] [%] | viability at 24 h, 50 µM [3] [%] | viability at 24 h, 100 µM [3] [%] | viability at 24 h, 200 µM [3] [%] | Minimal inhibitory concentration (S. aureus) [µM] | further results
O=C(O)c1cn(C2CC2)c2cc(N3CCNCC3)c(F)cc2c1=O [ciprofloxacin, reference compound] |  |  |  |  |  |  |  |  |  |  |  |  |  |  | wound healing ([1]; 0.1 mg/ml and 0.2 mg/ml, intracutaneous, observed everyday): no wound healing at all; number of colonies, compared with peptide treatment ([1]; treated after the bacterial infection): higher than that obtained from the peptide treatment condition
ILGKLWEGVKSI-NH2 [Hp1404-T1] | >25 | >25 | 0 | 0 | 0 | 0 | 0 | 100 | 100 | 100 | 100 | 100 | 100 | >25 | 
ILKKLLEGVKSI-NH2 [Hp1404-T1b] | >25 | >25 | 0.07 | 0.19 | 0 | 0 | 0 | 100 | 100 | 100 | 100 | 80.9 | 31.9 | >25 | 
ILKKLLKGVKSI-NH2 [Hp1404-T1c] |  |  | 0 | 0 | 0 | 0 | 0 | 100 | 100 | 100 | 51.3 | 48.6 |  |  | binding to DNA (plasmid DNA (pRSETB)): did not bind to any DNA; binding to LPS, rank order [4]: binding to LPS increases in order of Hp1404-T1e, Hp1404-T1d, Hp1404-T1c, and Hp1404; propidium iodide fluorescence signal shift (membrane damage) [5]: no such shift of fluorescence signal; remaining at 1 h, 200 μg/mL ([6]; reaction for 1 hour): ≥ 80%; remaining at 2 h, 200 μg/mL ([6]; reaction for 2 hours): 80%
ILKKLWEGVKSI-NH2 [Hp1404-T1a] |  |  | 0 | 0 | 0 | 0 | 0 | 100 | 100 | 100 | 100 | 100 | 30.7 |  | 
